Results as given in ChEMBL document CHEMBL1152560, “Substituted 2-arylbenzothiazoles as kinase inhibitors: hit-to-lead optimization” (Bioorg Med Chem, 2009).

Columns and labels:
[1] = target: Rho-associated protein kinase 2 (Homo sapiens) (UniProt O75116); experiment: Residual activity of ROCK2 at 10 uM by microplate scintillation counting
[2] = target: Mitogen-activated protein kinase 10 (Homo sapiens) (UniProt P53779); experiment: Residual activity of JNK3 at 1 uM by microplate scintillation counting
[3] = target: Non-receptor tyrosine-protein kinase TYK2 (Homo sapiens) (UniProt P29597); experiment: Residual activity of TYK2 at 0.1 uM by microplate scintillation counting
[4] = test system: Serine/threonine-protein kinase B-raf (Homo sapiens), P15056 [V600E]; experiment: Residual activity of B-RAF V600E mutant at 10 uM by microplate scintillation counting
[5] = target: T1, Serine/threonine-protein kinase Sgk3 (Homo sapiens) (UniProt Q96BR1); experiment: Residual activity of SGK3 at 1 uM by microplate scintillation counting
T1 sequence (whole entry): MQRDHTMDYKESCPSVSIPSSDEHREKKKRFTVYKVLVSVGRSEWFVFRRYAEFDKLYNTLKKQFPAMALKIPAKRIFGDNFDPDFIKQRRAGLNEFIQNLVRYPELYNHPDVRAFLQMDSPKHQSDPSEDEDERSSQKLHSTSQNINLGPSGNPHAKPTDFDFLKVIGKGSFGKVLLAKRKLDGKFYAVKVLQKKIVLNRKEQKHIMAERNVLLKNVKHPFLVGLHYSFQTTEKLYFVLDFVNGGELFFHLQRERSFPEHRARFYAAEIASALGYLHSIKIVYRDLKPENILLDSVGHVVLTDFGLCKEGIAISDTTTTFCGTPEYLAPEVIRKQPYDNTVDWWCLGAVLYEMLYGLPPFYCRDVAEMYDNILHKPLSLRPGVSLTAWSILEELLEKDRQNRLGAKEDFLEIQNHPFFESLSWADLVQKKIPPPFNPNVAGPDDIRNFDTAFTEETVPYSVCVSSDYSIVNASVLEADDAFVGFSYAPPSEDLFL

[6] = target: Vascular endothelial growth factor receptor 2 (Homo sapiens, UniProt P35968); experiment: Residual activity of VEGFR2 at 0.1 uM by microplate scintillation counting
[7] = target: T2, Protein kinase C epsilon type (Homo sapiens) (UniProt Q02156); experiment: Residual activity of PKCepsilon at 0.1 uM by microplate scintillation counting
T2 sequence (whole entry): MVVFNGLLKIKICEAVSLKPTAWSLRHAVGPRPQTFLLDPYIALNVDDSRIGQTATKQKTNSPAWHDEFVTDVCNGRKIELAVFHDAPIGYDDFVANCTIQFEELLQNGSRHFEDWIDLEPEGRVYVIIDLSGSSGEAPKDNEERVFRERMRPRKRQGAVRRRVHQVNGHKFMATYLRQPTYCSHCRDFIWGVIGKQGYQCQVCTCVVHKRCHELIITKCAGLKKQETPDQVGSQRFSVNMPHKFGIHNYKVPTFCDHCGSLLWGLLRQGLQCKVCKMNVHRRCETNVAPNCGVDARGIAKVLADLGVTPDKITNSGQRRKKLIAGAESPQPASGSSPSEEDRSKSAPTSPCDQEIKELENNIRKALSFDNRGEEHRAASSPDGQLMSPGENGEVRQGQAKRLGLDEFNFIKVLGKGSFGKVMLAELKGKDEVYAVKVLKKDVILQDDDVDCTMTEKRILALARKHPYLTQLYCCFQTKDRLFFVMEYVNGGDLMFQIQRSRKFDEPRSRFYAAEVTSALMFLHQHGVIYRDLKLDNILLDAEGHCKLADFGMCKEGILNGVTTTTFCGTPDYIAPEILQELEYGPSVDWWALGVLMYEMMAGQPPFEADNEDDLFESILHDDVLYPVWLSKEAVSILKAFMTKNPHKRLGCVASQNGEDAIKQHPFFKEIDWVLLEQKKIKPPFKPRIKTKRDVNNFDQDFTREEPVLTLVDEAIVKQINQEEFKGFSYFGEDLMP

[8] = target: T3, Serine/threonine-protein kinase 4 (Homo sapiens) (UniProt Q13043); experiment: Residual activity of MST1 at 10 uM by microplate scintillation counting
T3 sequence (whole entry): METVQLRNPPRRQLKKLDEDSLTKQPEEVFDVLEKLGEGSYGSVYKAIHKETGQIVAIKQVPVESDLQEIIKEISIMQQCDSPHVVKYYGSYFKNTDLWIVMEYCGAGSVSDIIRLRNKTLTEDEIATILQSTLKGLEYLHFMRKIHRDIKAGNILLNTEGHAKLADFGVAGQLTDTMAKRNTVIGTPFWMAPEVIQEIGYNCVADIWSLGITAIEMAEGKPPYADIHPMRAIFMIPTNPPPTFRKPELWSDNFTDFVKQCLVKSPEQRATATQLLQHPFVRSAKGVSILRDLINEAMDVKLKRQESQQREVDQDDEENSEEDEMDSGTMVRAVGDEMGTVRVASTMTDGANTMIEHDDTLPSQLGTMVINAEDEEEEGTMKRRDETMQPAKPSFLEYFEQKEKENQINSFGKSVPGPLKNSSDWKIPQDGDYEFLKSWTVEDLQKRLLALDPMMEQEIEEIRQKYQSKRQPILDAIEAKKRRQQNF

[9] = target: T4, Protein kinase C zeta type (Homo sapiens) (UniProt Q05513); experiment: Residual activity of PKCzeta at 10 uM by microplate scintillation counting
T4 sequence (whole entry): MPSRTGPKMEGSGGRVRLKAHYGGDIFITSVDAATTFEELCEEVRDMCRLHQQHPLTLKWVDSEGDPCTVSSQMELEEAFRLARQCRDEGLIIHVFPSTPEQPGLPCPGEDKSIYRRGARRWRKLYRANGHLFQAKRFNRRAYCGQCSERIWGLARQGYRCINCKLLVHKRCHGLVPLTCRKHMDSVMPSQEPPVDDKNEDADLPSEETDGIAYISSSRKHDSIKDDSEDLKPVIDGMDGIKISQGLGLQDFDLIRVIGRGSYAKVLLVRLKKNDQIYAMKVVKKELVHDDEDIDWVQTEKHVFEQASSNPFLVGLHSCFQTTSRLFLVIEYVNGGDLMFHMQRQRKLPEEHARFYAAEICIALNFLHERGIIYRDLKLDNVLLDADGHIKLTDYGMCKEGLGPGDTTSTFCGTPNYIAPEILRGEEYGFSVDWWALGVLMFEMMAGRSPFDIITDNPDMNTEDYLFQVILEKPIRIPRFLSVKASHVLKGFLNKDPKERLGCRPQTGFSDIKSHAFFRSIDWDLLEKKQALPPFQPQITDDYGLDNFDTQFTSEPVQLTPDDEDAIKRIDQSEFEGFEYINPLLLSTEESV

Chain of Vascular endothelial growth factor receptor 2 (P35968 whole entry): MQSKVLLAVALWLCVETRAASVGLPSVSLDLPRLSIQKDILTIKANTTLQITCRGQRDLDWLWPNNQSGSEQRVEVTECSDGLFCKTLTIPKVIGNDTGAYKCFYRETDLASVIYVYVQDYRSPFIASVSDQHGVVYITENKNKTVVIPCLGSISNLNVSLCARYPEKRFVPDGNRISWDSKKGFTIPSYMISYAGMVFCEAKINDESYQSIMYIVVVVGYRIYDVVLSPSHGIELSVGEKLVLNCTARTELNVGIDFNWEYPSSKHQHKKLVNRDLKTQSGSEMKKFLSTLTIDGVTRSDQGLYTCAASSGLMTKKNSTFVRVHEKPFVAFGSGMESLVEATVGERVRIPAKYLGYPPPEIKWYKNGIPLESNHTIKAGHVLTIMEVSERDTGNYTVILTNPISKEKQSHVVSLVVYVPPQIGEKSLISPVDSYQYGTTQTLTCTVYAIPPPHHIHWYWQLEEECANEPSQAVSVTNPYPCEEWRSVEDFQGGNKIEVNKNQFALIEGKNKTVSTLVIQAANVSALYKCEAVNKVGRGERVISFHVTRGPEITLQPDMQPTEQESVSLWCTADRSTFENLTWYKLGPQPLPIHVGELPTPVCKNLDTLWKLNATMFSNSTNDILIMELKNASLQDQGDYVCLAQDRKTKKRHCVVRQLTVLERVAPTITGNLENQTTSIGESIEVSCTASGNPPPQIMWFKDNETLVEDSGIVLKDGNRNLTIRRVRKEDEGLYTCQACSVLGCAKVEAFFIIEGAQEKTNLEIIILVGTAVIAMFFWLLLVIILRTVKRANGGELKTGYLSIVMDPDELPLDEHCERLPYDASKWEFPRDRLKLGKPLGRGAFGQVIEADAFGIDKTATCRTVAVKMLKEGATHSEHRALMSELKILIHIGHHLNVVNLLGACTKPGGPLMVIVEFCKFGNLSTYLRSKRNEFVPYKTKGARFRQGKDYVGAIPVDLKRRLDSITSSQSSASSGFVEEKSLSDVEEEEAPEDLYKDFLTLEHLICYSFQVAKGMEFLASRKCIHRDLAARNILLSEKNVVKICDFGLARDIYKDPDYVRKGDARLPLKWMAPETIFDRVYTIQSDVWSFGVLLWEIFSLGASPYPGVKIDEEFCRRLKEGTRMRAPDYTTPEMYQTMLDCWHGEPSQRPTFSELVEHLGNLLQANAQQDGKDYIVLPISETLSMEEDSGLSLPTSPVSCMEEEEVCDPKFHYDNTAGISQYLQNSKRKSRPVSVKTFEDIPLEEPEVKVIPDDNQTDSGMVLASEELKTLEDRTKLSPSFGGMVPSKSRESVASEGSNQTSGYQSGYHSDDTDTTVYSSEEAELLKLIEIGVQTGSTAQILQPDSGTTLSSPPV
Chain of Rho-associated protein kinase 2 (Homo sapiens) (O75116 whole entry, looked up): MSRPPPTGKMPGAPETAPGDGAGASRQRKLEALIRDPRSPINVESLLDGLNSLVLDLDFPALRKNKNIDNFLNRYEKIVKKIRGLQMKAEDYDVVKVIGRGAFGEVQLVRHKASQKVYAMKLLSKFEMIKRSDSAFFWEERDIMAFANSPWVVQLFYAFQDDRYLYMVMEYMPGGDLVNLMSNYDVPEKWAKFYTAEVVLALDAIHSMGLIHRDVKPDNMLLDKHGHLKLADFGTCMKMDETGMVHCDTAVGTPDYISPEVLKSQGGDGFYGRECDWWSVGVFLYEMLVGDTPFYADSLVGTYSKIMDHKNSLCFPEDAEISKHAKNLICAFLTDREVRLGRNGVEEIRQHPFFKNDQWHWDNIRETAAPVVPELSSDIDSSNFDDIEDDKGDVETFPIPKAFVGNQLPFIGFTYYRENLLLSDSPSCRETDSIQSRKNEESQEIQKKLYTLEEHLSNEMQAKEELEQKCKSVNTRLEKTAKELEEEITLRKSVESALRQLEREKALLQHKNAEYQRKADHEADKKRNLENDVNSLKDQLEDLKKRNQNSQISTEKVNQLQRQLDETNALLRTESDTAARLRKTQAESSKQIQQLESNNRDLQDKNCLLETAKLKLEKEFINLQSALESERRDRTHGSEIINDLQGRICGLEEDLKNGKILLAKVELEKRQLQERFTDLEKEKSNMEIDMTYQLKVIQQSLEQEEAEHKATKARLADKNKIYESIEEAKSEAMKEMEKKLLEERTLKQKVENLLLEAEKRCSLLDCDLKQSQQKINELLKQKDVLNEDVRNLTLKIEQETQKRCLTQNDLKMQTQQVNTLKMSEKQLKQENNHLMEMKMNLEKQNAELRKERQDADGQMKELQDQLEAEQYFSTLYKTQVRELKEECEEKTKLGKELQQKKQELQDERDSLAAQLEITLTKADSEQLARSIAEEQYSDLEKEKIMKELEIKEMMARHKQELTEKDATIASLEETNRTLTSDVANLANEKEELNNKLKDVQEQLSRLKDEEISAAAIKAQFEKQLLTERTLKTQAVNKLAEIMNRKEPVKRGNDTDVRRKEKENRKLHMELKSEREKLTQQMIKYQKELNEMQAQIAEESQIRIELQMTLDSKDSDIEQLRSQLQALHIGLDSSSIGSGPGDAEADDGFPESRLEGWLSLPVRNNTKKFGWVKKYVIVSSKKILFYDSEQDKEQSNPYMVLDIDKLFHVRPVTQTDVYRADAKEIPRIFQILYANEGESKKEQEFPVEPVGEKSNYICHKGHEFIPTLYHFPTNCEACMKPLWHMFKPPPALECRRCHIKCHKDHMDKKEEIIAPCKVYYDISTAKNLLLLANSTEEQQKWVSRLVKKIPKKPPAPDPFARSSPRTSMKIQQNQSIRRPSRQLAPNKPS
Chain of Non-receptor tyrosine-protein kinase TYK2 (Homo sapiens) (P29597 whole entry): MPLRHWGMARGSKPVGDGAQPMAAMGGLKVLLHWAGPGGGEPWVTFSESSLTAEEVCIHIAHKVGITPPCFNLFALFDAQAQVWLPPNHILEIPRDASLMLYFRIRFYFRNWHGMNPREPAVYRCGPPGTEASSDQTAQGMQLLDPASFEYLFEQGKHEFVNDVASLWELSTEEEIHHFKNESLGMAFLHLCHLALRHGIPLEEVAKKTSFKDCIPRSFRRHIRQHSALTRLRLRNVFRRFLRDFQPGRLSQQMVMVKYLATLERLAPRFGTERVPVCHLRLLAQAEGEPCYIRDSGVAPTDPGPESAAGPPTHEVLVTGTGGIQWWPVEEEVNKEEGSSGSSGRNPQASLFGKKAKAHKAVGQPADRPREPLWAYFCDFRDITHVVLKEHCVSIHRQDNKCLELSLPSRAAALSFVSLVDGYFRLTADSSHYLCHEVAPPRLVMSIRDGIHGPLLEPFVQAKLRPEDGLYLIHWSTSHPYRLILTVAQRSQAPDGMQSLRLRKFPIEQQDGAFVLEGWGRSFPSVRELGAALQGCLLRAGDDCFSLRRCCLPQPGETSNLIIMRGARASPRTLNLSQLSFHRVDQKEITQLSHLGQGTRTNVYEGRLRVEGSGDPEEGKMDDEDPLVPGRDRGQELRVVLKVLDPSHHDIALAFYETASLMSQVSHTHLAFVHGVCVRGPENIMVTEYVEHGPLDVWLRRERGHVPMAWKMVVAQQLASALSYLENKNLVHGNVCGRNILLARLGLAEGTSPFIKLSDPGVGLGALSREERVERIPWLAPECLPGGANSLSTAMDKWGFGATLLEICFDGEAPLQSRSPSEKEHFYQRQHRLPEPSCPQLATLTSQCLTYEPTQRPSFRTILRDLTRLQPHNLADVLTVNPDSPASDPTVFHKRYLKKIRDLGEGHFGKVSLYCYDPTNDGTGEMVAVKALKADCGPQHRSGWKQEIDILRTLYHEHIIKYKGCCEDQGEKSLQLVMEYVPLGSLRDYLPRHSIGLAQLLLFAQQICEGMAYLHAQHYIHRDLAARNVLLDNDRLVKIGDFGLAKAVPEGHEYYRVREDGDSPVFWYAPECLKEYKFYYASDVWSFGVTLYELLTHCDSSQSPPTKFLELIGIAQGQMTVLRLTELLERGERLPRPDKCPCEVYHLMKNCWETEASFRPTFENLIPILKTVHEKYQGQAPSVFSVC
Chain of Serine/threonine-protein kinase B-raf (Homo sapiens), P15056 [V600E] (P15056 whole entry V600E): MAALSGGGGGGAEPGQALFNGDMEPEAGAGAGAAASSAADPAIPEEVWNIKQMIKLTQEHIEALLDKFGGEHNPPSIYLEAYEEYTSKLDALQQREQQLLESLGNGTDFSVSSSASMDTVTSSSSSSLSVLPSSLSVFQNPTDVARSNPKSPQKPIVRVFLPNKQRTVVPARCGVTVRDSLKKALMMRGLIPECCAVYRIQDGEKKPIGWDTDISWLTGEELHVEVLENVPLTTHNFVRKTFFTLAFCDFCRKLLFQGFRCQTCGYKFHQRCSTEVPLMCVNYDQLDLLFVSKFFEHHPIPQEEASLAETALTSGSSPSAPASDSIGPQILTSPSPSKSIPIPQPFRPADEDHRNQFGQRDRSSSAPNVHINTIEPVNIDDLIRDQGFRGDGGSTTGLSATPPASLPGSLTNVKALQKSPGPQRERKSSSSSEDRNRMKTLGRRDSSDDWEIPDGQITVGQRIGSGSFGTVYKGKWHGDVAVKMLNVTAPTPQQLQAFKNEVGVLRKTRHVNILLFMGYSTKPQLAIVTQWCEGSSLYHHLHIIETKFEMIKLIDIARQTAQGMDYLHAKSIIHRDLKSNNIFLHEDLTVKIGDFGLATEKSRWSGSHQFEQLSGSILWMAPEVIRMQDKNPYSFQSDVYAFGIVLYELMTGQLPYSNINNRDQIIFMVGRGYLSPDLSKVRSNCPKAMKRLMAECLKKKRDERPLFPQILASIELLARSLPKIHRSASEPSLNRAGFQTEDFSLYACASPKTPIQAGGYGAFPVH

Row | Compound | residual activity [1] | residual activity [2] | residual activity [3] | residual activity [4] | residual activity [5] | residual activity [6] | residual activity [7] | residual activity [8] | residual activity [9]
1 | COc1cc2c(Oc3ccc(-c4nc5ccccc5s4)cc3)ncnc2cc1OCCCN1CCN(C)CC1 | 54% | 106% | 90% | 57% | 91% | 65% | 106% | 23% | 72%
2 | COc1cc2c(Oc3ccc(-c4nc5ccccc5s4)cc3)ncnc2cc1OCCCN1CCCC1 | 84% | 97% | 94% | 58% | 110% | 73% | 112% | 30% | 64%
3 | COc1cc2c(Oc3ccc(-c4nc5ccccc5s4)cc3F)ncnc2cc1OCCCN1CCN(C)CC1 | 47% | 101% | 102% | 81% | 94% | 73% | 108% | 26% | 74%
